The text below walks through data of PMC12022909, “A Multicomponent Reaction-Based Platform Opens New Avenues in Aryl Hydrocarbon Receptor Modulation” (ACS Central Science, 2025).

The structures appear in SMILES notation.

Assay [1] has as its target T1, aryl hydrocarbon receptor (AhR) (Homo sapiens, UniProt P35869).
T1 construct: AhR-dependent reporter gene activity was determined in human HepG2 cells stably transfected with an XRE; endogenous in cells; host or cells: XRE-HepG2 (human HepG2 hepatoma cells stably carrying an XRE-luciferase plasmid)
T1 sequence (P35869 11-848): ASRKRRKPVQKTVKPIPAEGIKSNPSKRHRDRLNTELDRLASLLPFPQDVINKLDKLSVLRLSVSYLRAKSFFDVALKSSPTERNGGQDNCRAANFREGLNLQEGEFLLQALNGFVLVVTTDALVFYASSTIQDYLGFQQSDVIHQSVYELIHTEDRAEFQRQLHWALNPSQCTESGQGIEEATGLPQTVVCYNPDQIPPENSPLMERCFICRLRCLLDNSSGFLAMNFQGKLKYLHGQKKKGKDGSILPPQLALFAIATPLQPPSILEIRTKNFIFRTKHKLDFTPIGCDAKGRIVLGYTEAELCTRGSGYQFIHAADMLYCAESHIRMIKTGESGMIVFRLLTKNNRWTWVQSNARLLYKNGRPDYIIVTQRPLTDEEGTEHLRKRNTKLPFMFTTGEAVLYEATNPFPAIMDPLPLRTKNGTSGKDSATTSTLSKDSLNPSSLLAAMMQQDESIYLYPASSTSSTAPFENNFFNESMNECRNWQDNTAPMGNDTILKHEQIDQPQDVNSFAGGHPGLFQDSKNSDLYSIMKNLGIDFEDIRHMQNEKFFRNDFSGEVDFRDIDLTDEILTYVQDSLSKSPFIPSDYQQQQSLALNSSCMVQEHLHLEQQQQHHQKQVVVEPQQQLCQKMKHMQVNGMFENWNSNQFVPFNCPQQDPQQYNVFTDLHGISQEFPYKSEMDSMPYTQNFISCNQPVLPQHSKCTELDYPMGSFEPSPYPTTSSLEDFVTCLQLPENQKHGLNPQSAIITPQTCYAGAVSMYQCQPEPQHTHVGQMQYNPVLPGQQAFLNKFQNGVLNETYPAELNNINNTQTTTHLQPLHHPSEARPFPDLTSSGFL
The experiment in a line: AhR/XRE-dependent luciferase reporter gene assay in XRE-HepG2 cells. It is filed as cell-based. Conditions: for EC50: XRE-HepG2 cells, 8 h, unit as in the supplements, read-out: AhR/XRE-dependent luciferase activity EC50.
Protocol: (f) AhR/XRE-dependent reporter gene activity results (EC50/μM).
Data are shown as mean ± SEM.
The human XRE -HepG2 reporter cell -line was a kind gift of K. Gradin and L. Poellinger (Karolinska Institute, Stockholm,
antibiotic/antimycotic solution, and 0.8 mg/ml G418. All cells were cultivated at 37 °C in a humidified atmosphere containing 5% CO 2.
AhR-dependent reporter gene activity was determined in human HepG2 cells stably transfected with an XRE -harboring luciferase plasmid (XRE-HepG2 cells). […] Luciferase activity was normalized to protein content.

The target in the next assay is T2, AhR-GFP (Homo sapiens, UniProt P35869).
T2 construct: host or cells: MCF7, lentiviral transduction
The assay is described as follows: MCF7 AhR-GFP.IRES.mCherry reporter, flow cytometry quantification of AhR protein levels. It is filed as cell-based. The note with it: 5 μM, 5 h. The method, then:
Figure 6 Bifunctional AhR probes and AhR reporter in MCF7 cells. (a) Synthetic access to the conjugatable AhR ligand 5m. (b) Structure, yield, and EC50 value of the model amide 12a and MD simulation of AhR with 12a (last snapshot). (c) PROTAC-like compound 12b and dual probes 12c–d. Reaction conditions: (a) 5m (1 equiv), amine (1 equiv), HATU, DIPEA, DMF, rt, 24 h, Ar atm; (b) 5m (2 equiv), diamine (1 equiv), HATU, DIPEA, DMF, rt, 24 h, Ar atm. (d) General setup of the reporter system for quantifying AhR protein levels. (e) The population of MCF7 reporter cells (MCF7 AhR-GFP.IRES.mCherry) gated by flow cytometry and used for quantification of AhR. […] Values represent the ratio of the geometric mean of GFP and mCherry values in the gated population. (g) Change in protein levels relative to vehicle treatment (DMSO) in MCF7 cells treated with 12b at 10 μM for 5 h quantified by TMT labeling and LC/MS analysis versus p-Value. TEXT PRINTED IN THE PICTURE: (b) 12a: EC50 = 0.40 μM […]
To test the effect of these compounds on AhR abundance, we established a cellular reporter in the breast cancer cell line MCF7. AhR in this case is fused to GFP bearing an independently translated mCherry on the same transcript to allow correction for general transcriptional interference of treatments (Figure 6d,e). […]

T2 sequence (P08238 whole entry partner, one chain of several): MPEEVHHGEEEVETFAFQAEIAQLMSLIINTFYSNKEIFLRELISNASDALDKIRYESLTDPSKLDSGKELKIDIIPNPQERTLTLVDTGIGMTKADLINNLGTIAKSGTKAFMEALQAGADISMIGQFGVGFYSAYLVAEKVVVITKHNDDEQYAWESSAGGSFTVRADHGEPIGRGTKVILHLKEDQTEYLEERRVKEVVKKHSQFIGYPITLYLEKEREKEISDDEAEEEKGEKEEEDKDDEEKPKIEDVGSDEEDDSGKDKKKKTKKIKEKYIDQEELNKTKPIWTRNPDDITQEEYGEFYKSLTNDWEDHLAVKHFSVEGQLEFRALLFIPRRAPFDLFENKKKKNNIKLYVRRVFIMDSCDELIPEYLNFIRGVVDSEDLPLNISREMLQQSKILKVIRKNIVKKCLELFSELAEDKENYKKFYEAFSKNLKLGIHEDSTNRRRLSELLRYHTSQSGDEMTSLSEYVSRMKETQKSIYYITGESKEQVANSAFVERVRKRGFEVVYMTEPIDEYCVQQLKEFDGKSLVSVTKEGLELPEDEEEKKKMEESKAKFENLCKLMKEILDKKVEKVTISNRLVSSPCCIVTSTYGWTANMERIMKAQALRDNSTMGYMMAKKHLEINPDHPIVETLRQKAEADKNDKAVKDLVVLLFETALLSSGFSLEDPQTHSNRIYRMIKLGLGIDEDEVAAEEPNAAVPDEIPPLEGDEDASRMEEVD
T2 sequence (O00170 whole entry partner, one chain of several): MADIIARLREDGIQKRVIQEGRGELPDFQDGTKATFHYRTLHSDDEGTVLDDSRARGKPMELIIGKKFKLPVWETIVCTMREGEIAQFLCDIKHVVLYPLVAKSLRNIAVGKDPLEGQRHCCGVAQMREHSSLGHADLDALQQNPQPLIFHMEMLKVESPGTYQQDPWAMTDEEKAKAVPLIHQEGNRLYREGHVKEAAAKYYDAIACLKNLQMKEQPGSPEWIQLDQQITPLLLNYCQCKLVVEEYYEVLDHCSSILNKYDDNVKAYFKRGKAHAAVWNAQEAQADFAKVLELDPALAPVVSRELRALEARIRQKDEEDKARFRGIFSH

Consider `Cc1[nH]c2ccccc2c1-c1c2[nH]c3ccccc3c2cc2[nH]c3ccccc3c12` [5e], for which the EC50 in assay [1] turned out to be 520 nM. For the same compound, the “increase in the EC50 value relative to 5c” value in assay [1] (from reporter gene EC50 values) is on record as 1.4 fold. For the same compound, on AhR-GFP, the “AhR degradation in reporter system” value is “pronounced AhR degradation”.

With `CCOc1c2[nH]c3ccccc3c2cc2[nH]c3ccccc3c12` [compound 8, 6-ethoxy-ICZ], the EC50 in assay [1] stood at 90 nM.
